Test results as given in patent publication US20230051563A1, “NON-ELICITED DEDIFFERENTIATED LAVANDULA ANGUSTIFOLIA PLANT CELLS, EXTRACTS THEREOF AND COSMETIC USES THEREOF” (L'OREAL, priority 2019, published 2023).

Tested on: isolated stratum corneum
Assay: Moisturizing potential on isolated stratum corneum by measurement with a corneometer
Conditions: 5% by weight in 80%/20% water/n-propanol, 10 μL/cm2 on SC, 4 hours, 75% relative humidity, 25° C.
Method: A test was performed to evaluate the moisturizing potential of the extracts of the invention formulated in a vehicle (80%/20% water/n-propanol) in an amount of 5% by weight relative to the total weight of the composition. The technique makes it possible to measure the dielectric capacitance of the stratum corneum (SC), which depends on the mean dielectric permittivity value of the tissue. The dielectric permittivity varies greatly with the amount of water contained in the SC. The SC samples are conditioned at 75% relative humidity and at 25° C. before/during the measurements and the treatment. The capacitance measurement is performed using a CorneometerTM (Courage & Khazaka, Germany). […] Using at least two different batches of SC, four to five SC samples are measured per treatment. The variation in the corneometer signal (HCM) after treatment is calculated first for each SC sample: […]0). The mean of the DHCMi(vehicle) variations is then calculated for the control samples (treated with the vehicle): this mean value is subtracted from all the DHCMi(active agent) and DHCMi(positive control) variations to correct for the systematic bias. […]

## OCC(O)CO [Glycerol, glycerol]
  % norm (corneometer signal variation, vehicle-corrected, normalized to glycerol): 100%
